Measurements from patent publication US10829473B2, “Modulators of the cystic fibrosis transmembrane conductance regulator protein and methods of use” (AbbVie Overseas S.Á.R.L., priority 2017, dated 2020).
Read-outs that look alike come from different tables or passages of the source.

Target: T1, F508delCFTR (Homo sapiens, UniProt P13569, DEL508-508)
T1 construct: expressed in transfected cells; host or cells: CFBE41o- human lung derived epithelial cells (CFBE41o-F508delCFTR-HRP), doxycycline-inducible
T1 sequence (P13569 with tags, fused parts or gaps DEL508-508): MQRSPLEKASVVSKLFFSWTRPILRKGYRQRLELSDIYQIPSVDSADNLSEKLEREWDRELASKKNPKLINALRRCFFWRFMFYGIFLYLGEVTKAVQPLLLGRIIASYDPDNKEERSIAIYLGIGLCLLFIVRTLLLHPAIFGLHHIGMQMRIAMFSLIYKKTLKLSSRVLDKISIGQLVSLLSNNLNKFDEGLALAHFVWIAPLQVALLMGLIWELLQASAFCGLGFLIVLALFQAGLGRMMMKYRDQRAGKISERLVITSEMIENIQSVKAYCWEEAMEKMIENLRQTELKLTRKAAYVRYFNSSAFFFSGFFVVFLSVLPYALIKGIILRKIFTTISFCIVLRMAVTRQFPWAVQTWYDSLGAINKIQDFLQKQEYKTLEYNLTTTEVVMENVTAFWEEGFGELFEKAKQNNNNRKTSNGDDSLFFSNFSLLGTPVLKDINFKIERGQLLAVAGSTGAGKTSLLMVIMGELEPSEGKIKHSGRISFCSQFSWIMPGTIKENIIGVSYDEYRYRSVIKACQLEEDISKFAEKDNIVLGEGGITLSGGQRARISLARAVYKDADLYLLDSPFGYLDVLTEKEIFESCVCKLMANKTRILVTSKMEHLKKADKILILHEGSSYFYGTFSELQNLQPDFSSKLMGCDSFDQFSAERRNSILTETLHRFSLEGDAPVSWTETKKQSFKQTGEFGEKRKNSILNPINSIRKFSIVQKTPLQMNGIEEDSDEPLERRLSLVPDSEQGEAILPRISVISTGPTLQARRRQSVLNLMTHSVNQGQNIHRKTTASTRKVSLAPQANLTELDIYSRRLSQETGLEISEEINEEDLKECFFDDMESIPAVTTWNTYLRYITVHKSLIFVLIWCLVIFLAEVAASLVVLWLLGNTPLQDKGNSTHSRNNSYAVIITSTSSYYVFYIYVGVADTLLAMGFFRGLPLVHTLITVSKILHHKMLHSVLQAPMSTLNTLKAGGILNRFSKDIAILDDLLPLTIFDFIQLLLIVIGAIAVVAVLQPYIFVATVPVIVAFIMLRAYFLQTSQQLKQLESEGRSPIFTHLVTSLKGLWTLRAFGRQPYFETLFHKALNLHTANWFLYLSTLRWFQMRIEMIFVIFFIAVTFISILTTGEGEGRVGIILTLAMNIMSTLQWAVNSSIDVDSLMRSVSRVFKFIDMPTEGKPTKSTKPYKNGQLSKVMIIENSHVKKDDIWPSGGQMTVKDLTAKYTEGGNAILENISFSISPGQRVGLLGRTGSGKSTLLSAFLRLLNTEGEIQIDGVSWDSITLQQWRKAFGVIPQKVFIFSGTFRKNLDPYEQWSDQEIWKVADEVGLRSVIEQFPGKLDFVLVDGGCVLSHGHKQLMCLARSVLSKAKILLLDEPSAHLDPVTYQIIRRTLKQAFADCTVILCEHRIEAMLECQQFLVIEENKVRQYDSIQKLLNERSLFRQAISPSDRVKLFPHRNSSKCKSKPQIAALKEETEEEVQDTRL
Assay: Cell Surface Expression-Horse Radish Peroxidase (CSE-HRP) Assay;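 as to EC50 (with co-corrector): co-corrector chromenyl benzoic acid corrector at 2 or 3 µM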;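 as to Maximum % activity (without co-corrector): % of on-plate positive control chromenyl benzoic acid corrector at 2 or 3 µM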
Format: cell-based
Conditions: for Maximum % activity (with co-corrector) / Emax: maximum at any tested concentration; for Emax: read-out: Maximum % activity (without co-corrector)
Summary of the method: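 Corrector compounds were given as 8-point 3-fold series from 20 or 30 μM, with or without a 2 μM co-corrector, for 18-24 h at 33 °C. Surface HRP was read by luminol luminescence as % of positive control; variable-Hill-slope sigmoidal fitting gave EC50 from triplicate plates.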

[1] = test compound with co-corrector
[2] = test compound with co-corrector, read-out: EC50 (with co-corrector)
[3] = test compound without co-corrector
[4] = test compound without co-corrector, read-out: EC50 (without co-corrector)

Compound | Maximum % activity (with co-corrector) [1] | EC50 [2] | Emax [3] | EC50 [4]
COc1cc(C2(C(=O)NS(=O)(=O)c3cccc4[nH]ccc34)CC2)c(OCC2CC2)cn1 [Example GI-95, 1-[5-(cyclopropylmethoxy)-2-methoxypyridin-4-yl]-N-(1H-indole-4-sulfonyl)cyclopropane-1-carboxamide] | +++ (≥350) | < 3 µM | > 150% | < 3 µM
Cc1cnc(OCC2CC2)c(C2(C(=O)NS(=O)(=O)c3cccc4ncccc34)CC2)c1 [Example GI-96, 1-[2-(cyclopropylmethoxy)-5-methylpyridin-3-yl]-N-(quinoline-5-sulfonyl)cyclopropane-1-carboxamide] | +++ (≥350) | < 3 µM | > 150% | 3 to 10 µM
Cc1cnc(OCC2CC2)c(C2(C(=O)NS(=O)(=O)c3cccc4[nH]ccc34)CC2)c1 [Example GI-97, 1-[2-(cyclopropylmethoxy)-5-methylpyridin-3-yl]-N-(1H-indole-4-sulfonyl)cyclopropane-1-carboxamide] | +++ (≥350) | < 3 µM | > 150% | < 3 µM
O=C(NS(=O)(=O)c1cccc2[nH]ccc12)C1(c2cc(C3CCC3)cnc2OCC2CC2)CC1 [Example GI-98, 1-[5-cyclobutyl-2-(cyclopropylmethoxy)pyridin-3-yl]-N-(1H-indole-4-sulfonyl)cyclopropane-1-carboxamide] | +++ (≥350) | < 3 µM | > 150% | < 3 µM
COCCOc1ncc(C2CCC2)cc1C1(C(=O)NS(=O)(=O)c2cccc3[nH]ccc23)CC1 [Example GI-99, 1-[5-cyclobutyl-2-(2-methoxyethoxy)pyridin-3-yl]-N-(1H-indole-4-sulfonyl)cyclopropane-1-carboxamide] | +++ (≥350) | < 3 µM | > 150% | < 3 µM
O=C(NS(=O)(=O)c1cccc2ncccc12)C1(c2cc(C3CCC3)cnc2OCC2CC2)CC1 [Example GI-100, 1-[5-cyclobutyl-2-(cyclopropylmethoxy)pyridin-3-yl]-N-(quinoline-5-sulfonyl)cyclopropane-1-carboxamide] | +++ (≥350) | < 3 µM | > 150% | < 3 µM
Cc1cnc(OCC2CC2)c(C2(C(=O)NS(=O)(=O)c3cccc4nc(C)ccc34)CC2)c1 [Example GI-101, 1-[2-(cyclopropylmethoxy)-5-methylpyridin-3-yl]-N-(2-methylquinoline-5-sulfonyl)cyclopropane-1-carboxamide] | +++ (≥350) | < 3 µM | > 150% | 3 to 10 µM
CCc1cnc(N2CCC(OC(C)C)CC2)c(C2(C(=O)NS(=O)(=O)c3cccc4[nH]ccc34)CC2)c1 [Example GI-102, 1-(5-ethyl-2-{4-[(propan-2-yl)oxy]piperidin-1-yl}pyridin-3-yl)-N-(1H-indole-4-sulfonyl)cyclopropane-1-carboxamide] | +++ (≥350) | < 3 µM | > 150% | 3 to 10 µM
CC(C)OC1CCN(c2ncc(C3CCC3)cc2C2(C(=O)NS(=O)(=O)c3cccc4[nH]ccc34)CC2)CC1 [Example GI-104, 1-(5-cyclobutyl-2-{4-[(propan-2-yl)oxy]piperidin-1-yl}pyridin-3-yl)-N-(1H-indole-4-sulfonyl)cyclopropane-1-carboxamide] | +++ (≥350) | < 3 µM | > 150% | < 3 µM
CC(C)OC1CCN(c2ncc(C3CCC3)cc2C2(C(=O)NS(=O)(=O)c3cccc4ncccc34)CC2)CC1 [Example GI-105, 1-(5-cyclobutyl-2-{4-[(propan-2-yl)oxy]piperidin-1-yl}pyridin-3-yl)-N-(quinoline-5-sulfonyl)cyclopropane-1-carboxamide] | +++ (≥350) | < 3 µM | > 150% | < 3 µM
CCc1cnc(OCC2CC2)c(C2(C(=O)NS(=O)(=O)c3cccc4ncccc34)CC2)c1 [Example GI-106, 1-[2-(cyclopropylmethoxy)-5-ethylpyridin-3-yl]-N-(quinoline-5-sulfonyl)cyclopropane-1-carboxamide] | +++ (≥350) | < 3 µM | > 150% | < 3 µM
CCc1cnc(OCC2CC2)c(C2(C(=O)NS(=O)(=O)c3cccc4nc(C)ccc34)CC2)c1 [Example GI-107, 1-[2-(cyclopropylmethoxy)-5-ethylpyridin-3-yl]-N-(2-methylquinoline-5-sulfonyl)cyclopropane-1-carboxamide] | +++ (≥350) | < 3 µM | > 150% | < 3 µM
CCc1cnc(OCC2CC2)c(C2(C(=O)NS(=O)(=O)c3cccc4[nH]ccc34)CC2)c1 [Example GI-108, 1-[2-(cyclopropylmethoxy)-5-ethylpyridin-3-yl]-N-(1H-indole-4-sulfonyl)cyclopropane-1-carboxamide] | +++ (≥350) | < 3 µM | > 150% | < 3 µM

Results, then the compound that gave them:

Maximum % activity (with co-corrector) [1] | EC50 [2] | Emax [3] | EC50 [4] | Compound
+++ (≥350) | < 3 µM | > 150% | 3 to 10 µM | CC(C)Oc1ncc(N2CCC2)cc1C1(C(=O)NS(=O)(=O)c2cccc3ncccc23)CC1 [Example GI-83, 1-{5-(azetidin-1-yl)-2-[(propan-2-yl)oxy]pyridin-3-yl}-N-(quinoline-5-sulfonyl)cyclopropane-1-carboxamide]
+++ (≥350) | < 3 µM | > 150% | 3 to 10 µM | Cc1ccc2c(S(=O)(=O)NC(=O)C3(c4cc(N5CCC5)cnc4OC(C)C)CC3)cccc2n1 [Example GI-84, 1-{5-(azetidin-1-yl)-2-[(propan-2-yl)oxy]pyridin-3-yl}-N-(2-methylquinoline-5-sulfonyl)cyclopropane-1-carboxamide]
+++ (≥350) | < 3 µM | > 150% | 3 to 10 µM | CC(C)Oc1ncc(N2CCC2)cc1C1(C(=O)NS(=O)(=O)c2cccc3[nH]ccc23)CC1 [Example GI-85, 1-{5-(azetidin-1-yl)-2-[(propan-2-yl)oxy]pyridin-3-yl}-N-(1H-indole-4-sulfonyl)cyclopropane-1-carboxamide]
+++ (≥350) | < 3 µM | > 150% | < 3 µM | CC(C)COc1ccc(OC(C)C)c(C2(C(=O)NS(=O)(=O)c3cccc4ncccc34)CC2)n1 [Example GI-86, 1-{6-(2-methylpropoxy)-3-[(propan-2-yl)oxy]pyridin-2-yl}-N-(quinoline-5-sulfonyl)cyclopropane-1-carboxamide]
+++ (≥350) | < 3 µM | > 150% | 3 to 10 µM | COc1cnc(OCC2CC2)c(C2(C(=O)NS(=O)(=O)c3cccc4ncccc34)CC2)c1 [Example GI-87, 1-[2-(cyclopropylmethoxy)-5-methoxypyridin-3-yl]-N-(quinoline-5-sulfonyl)cyclopropane-1-carboxamide]
+++ (≥350) | < 3 µM | > 150% | < 3 µM | COc1cnc(OCC2CC2)c(C2(C(=O)NS(=O)(=O)c3cccc4[nH]ccc34)CC2)c1 [Example GI-88, 1-[2-(cyclopropylmethoxy)-5-methoxypyridin-3-yl]-N-(1H-indole-4-sulfonyl)cyclopropane-1-carboxamide]
+++ (≥350) | < 3 µM | > 150% | < 3 µM | CC(C)COc1ccc(OC(C)C)c(C2(C(=O)NS(=O)(=O)c3cccc4[nH]ccc34)CC2)n1 [Example GI-89, N-(1H-indole-4-sulfonyl)-1-{6-(2-methylpropoxy)-3-[(propan-2-yl)oxy]pyridin-2-yl}cyclopropane-1-carboxamide]
+++ (≥350) | < 3 µM | > 150% | < 3 µM | Cc1ccc2c(S(=O)(=O)NC(=O)C3(c4nc(OCC(C)C)ccc4OC(C)C)CC3)cccc2n1 [Example GI-90, 1-{6-(2-methylpropoxy)-3-[(propan-2-yl)oxy]pyridin-2-yl}-N-(2-methylquinoline-5-sulfonyl)cyclopropane-1-carboxamide]
+++ (≥350) | < 3 µM | > 150% | 3 to 10 µM | COc1cc(C2(C(=O)NS(=O)(=O)c3cccc4ncccc34)CC2)c(OCC2CC2)cn1 [Example GI-91, 1-[5-(cyclopropylmethoxy)-2-methoxypyridin-4-yl]-N-(quinoline-5-sulfonyl)cyclopropane-1-carboxamide]
+++ (≥350) | < 3 µM | > 150% | < 3 µM | COc1cnc(OCC2CC2)c(C2(C(=O)NS(=O)(=O)c3cccc4nc(C)ccc34)CC2)c1 [Example GI-92, 1-[2-(cyclopropylmethoxy)-5-methoxypyridin-3-yl]-N-(2-methylquinoline-5-sulfonyl)cyclopropane-1-carboxamide]
+++ (≥350) | < 3 µM | > 150% | < 3 µM | COCCOc1ncc(C2CCC2)cc1C1(C(=O)NS(=O)(=O)c2cccc3nc(C)ccc23)CC1 [Example GI-94, 1-[5-cyclobutyl-2-(2-methoxyethoxy)pyridin-3-yl]-N-(2-methylquinoline-5-sulfonyl)cyclopropane-1-carboxamide]
